Assays:
Assay type in all cases: functional
Parameters in all cases: scale not given: the % may be the effect or the level left
[1] = test system: Human alphaherpesvirus 1; assay: Antiviral activity against HSV1 in Vero cells assessed as plaque infectivity reduction at 10 ug/ml
[2] = test system: Human alphaherpesvirus 1; assay: Antiviral activity against HSV1 in Vero cells assessed as plaque infectivity reduction at 20 ug/ml
[3] = test system: Hepatovirus A; assay: Antiviral activity against HAV in Vero cells assessed as plaque infectivity reduction at 10 ug/ml
[4] = test system: Hepatovirus A; assay: Antiviral activity against HAV in Vero cells assessed as plaque infectivity reduction at 20 ug/ml

Row | SMILES | Activity [1] [%] | Activity [2] [%] | Activity [3] [%] | Activity [4] [%]
1 | O=C1OC(c2ccc(Cl)cc2)=C/C1=C\c1cn(-c2ccccc2)nc1-c1ccccc1 | 0 | 0 | 40 | 60
2 | COc1ccc(C2=C/C(=C\c3cn(-c4ccccc4)nc3-c3ccccc3)C(=O)N2Cc2ccccc2)cc1 | 23 | 45 | 0 | 0
3 | NNC(=O)/C(=C/c1cn(-c2ccccc2)nc1-c1ccccc1)CC(=O)c1ccc(Cl)cc1 | 26 | 42.8 | 20 | 30
4 | O=C(NNC(=O)c1ccccc1)/C(=C/c1cn(-c2ccccc2)nc1-c1ccccc1)CC(=O)c1ccc(Cl)cc1 | 10 | 38 | 30 | 60
5 | NC(=O)NNC(=O)/C(=C/c1cn(-c2ccccc2)nc1-c1ccccc1)CC(=O)c1ccc(Cl)cc1 | 42.8 | 52 | 0 | 20
6 | O=C(C/C(=C\c1cn(-c2ccccc2)nc1-c1ccccc1)c1n[nH]c(=S)o1)c1ccc(Cl)cc1 | 14 | 45 | 0 | 0
7 | O=C(NCc1ccccc1)/C(=C/c1cn(-c2ccccc2)nc1-c1ccccc1)CC(=O)c1ccc(Cl)cc1 | 4 | 23.8 | 40 | 60
8 | O=C(C/C(=C\c1cn(-c2ccccc2)nc1-c1ccccc1)c1n[nH]c(=O)[nH]1)c1ccc(Cl)cc1 | 0 | 14 | 0 | 10
9 | COc1ccc(-c2cc(Cc3cn(-c4ccccc4)nc3-c3ccccc3)c(=O)[nH]n2)cc1 | 21 | 47 | 20 | 50
10 | O=C(C/C(=C\c1cn(-c2ccccc2)nc1-c1ccccc1)c1n[nH]c(=S)[nH]1)c1ccc(Cl)cc1 | 0 | 38 | 40 | 50

Source: ChEMBL document CHEMBL1147850, “Conversion of some 2(3H)-furanones bearing a pyrazolyl group into other heterocyclic systems with a study of their antiviral activity” (2007)
